Data published in patent US9580487B2, “Method of treating stomach or bowel-related disorders by administering glucagon-like-peptide-2 (GLP-2) analogues” (Zealand Pharma A/S, priority 2005, dated 2017).
Entries after “also recorded” stand apart in the source; their conditions may differ. No end group written: not given here.

Legend:
[1] = tested on: TNF-α; assay: Small intestinal tissue content of TNF-α (ELISA) in rats with indomethacin-induced inflammation; assay type: in vivo; details: for Tissue levels of TNF-α, proximal segment: indomethacin alone 97±14, control 34±7
Method: Male Sprague Dawley rats were treated with vehicle (saline; group 1) or indomethacin (7 mg/kg s.c., once daily for two days; groups 2-7). […] On day 3, rats were sacrificed and upon necropsy, the small intestine was divided into three segments of equal length corresponding to 1) duodenum and proximal jejunum, 2) mid and distal jejunum and 3) ileum. Samples were immediately snap-frozen in liquid N2 and stored at −80° C. until analysis. Homogenization and extraction of cellular protein from small intestinal segments was performed according to the following procedure: Tissue segments were weighed and added a volume of 1.5 ml per gram tissue ice-cold (4° C.) extraction buffer (10 mM Tris-HCl (Sigma) and 1 mM EDTA (J. T. Baker), (pH 7.6) with 0.05% sodium azide (Fluka), 1% Tween-80 (Fluka), 2 mM phenylmethylsulfonyl fluoride (PMSF, Fluka) and 1 μg/ml of each of the protease inhibitors aprotinin, leupeptin and pepstatin A (Roche Diagnostics)). The tissue was cut into small bits with a pair of scissors and homogenized three times for 20 seconds (IKA UltraTurrax T25 homogenizer, Janke & Kunkel) at 9500 rpm with intermittent cooling on ice for 30 seconds. The homogenate was centrifuged at 20.000×g for 30 minutes at 4° C., the supernatant was collected and stored at −20° C. until analysis for TNF-α small intestinal protein extractions were analyzed for TNF-α using a commercially available ELISA kit according to the manufacturer's instructions (Rat Tumor Necrosis Factor-α UltraSensitive ELISA kit, Biosource International Inc.). The assay has a detection limit of 0.7 pg/ml. Protein extractions were analyzed for total protein content using a commercially available assay (DC protein assay, Bio-Rad Laboratories Ltd.). Small intestinal tissue levels of TNF-α were expressed relative to total protein. […] Values are means±SEM. * P<0.05 vs. indomethacin (group 2).
At sacrifice, however the small intestine was separated into three segments of equal length (proximal, mid and distal). TNF-α concentrations were measured in each of the individual segments using a commercially available ELISA kit.

[2] = tested on: Sprague-Dawley rats treated with 5-Fluorouracil (5-FU); assay: 5-FU-induced small intestinal atrophy and diarrhea in SD rats; assay type: in vivo
Method: FIG. 10 is a set of graphs showing effects of compound 1846 (SEQ ID NO:34) (16, 80 and 400 nmol/kg/d; s.c., n=6/dose group) in male Spague-Dawley rats treated with the cytostatic drug 5-Fluorouracil (5-FU). Compound 1846 (SEQ ID NO:34) was administered for 3 days prior to and for 4 days together with 5-FU (75 mg/kg, i.p. daily). Results were compared with responses in control animals treated with vehicle (saline) or 5-FU alone. Saline and 5-FU controls are also shown. […] Values are means±SEM. * P<0.05, relative to 5-FU alone.
FIG. 11 is a set of graphs showing the therapeutic effect of compound 1846 (SEQ ID NO:34) on diarrhea induced by treatment with the cytostatic drug 5-fluorouracil (5-FU). Rats were treated with 5-FU for 4 days with 75 mg/kg once daily (days 1-4); (n=40 rats). Half of the animals received additional treatment with compound 1846 (SEQ ID NO:34) (400 nmol/kg s.c. once daily) during the last 3 days prior to (days −3 to −1) and during 4 days of 5-FU treatment (days 0 to 3). Rats were observed twice daily (morning and evening) to determine whether the animal had diarrhea and the severity of the diarrhea was scored according to this scale: (0) no diarrhea; (1) mild—fecal staining around the anus; (2) moderate—fecal staining on the hind limbs and tail; and (3) severe—fecal staining on the front limbs and abdomen. On day 5, about 70% of Sprague Dawley rats that received 5-FU alone had developed diarrhea (FIG. 11A) while only 30% of the rats that were co-treated with compound 1846 (SEQ ID NO:34) developed diarrhea (FIG. 11B).
The effect of the clinical candidate, 1846 (SEQ ID NO:34), on 5-FU-induced small intestinal atrophy and diarrhea was investigated in SD rats. We have previously shown that i.p. administration of 75 mg/kg 5-FU once daily for four days induces significant small intestinal atrophy and diarrhea in SD rats. 1846 (SEQ ID NO:34) (16, 80 and 400 nmol/kg/d; […]) was administered twice daily for three days prior to 5-FU and for four days together with 5-FU administration. 5-FU controls and PBS controls were included in the study. […]

Substance	Tissue levels of TNF-α, proximal segment ([1]; 8 nmol/kg) [pg/mg protein]	Tissue levels of TNF-α, proximal segment ([1]; 40 nmol/kg) [pg/mg protein]	Tissue levels of TNF-α, proximal segment ([1]; 200 nmol/kg) [pg/mg protein]	Small intestinal tissue levels of TNF-α (in words) ([1]; 8, 40 or 200 nmol/kg, indomethacin-treated rats)	Tissue levels of TNF-α, mid segment (in words) ([1]; 40 or 200 nmol/kg, indomethacin alone 108±9 pg/mg protein)	TNF-α levels, distal segment (in words) ([1]; indomethacin alone 75±5 pg/mg protein)	TNF-α: efficacy compared with prednisolone ([1]; vs prednisolone 10 mg/kg)	Rats that developed diarrhea on day 5 ([2]; 400 nmol/kg s.c. with 5-FU 75 mg/kg, 5-FU alone about 70%) [%]	5-FU-induced small intestinal atrophy (SI-BW, SI length) in rats ([2]; 16, 80 and 400 nmol/kg/d s.c., 3 days prior to and 4 days with 5-FU 75 mg/kg i.p. daily)	Incidence and severity of diarrhea ([2]; highest dose (400 nmol/kg), rats administered 5-FU)
[Gly2, Glu3, Thr5, Ser8, Leu10, Ala11,16,24,28]hGLP-2(1-33)-(Lys)6-NH2 (HGEGTFSSELATILDALAARDFIAWLIATKITDKKKKKK-NH2) [Compound 1848]	45±14	44±9	45±7	significantly decreased small intestinal tissue levels of the proinflammatory cytokine TNF-α	significantly reduced tissue levels of TNF-α	inhibitory effect on TNF-α levels in the distal segment but the effect was less pronounced compared to the other segments	more efficacious than prednisolone in the proximal and mid segments	–	–	–
[Gly2, Glu3, Ser8,11, Leu10, Ala16,24,28]hGLP-2(1-33)-(Lys)6-NH2 (HGEGSFSSELSTILDALAARDFIAWLIATKITDKKKKKK-NH2) [Compound 1846]	–	–	–	–	–	–	–	30	prevented 5-FU-induced small intestine atrophy; also recorded: dose-dependently prevented 5-FU induced small intestinal atrophy and maintained SI-BW and SI length at levels similar to the controls	decreased the incidence and severity of diarrhea
